Reference: US12642270B2, “Substituted thiophene carboxamides, thiophene carboxylic acids and derivatives thereof” (Bayer Aktiengesellschaft, priority 2019, dated 2026)

Test: Log P by HPLC on reversed phase columns (EEC directive 79/831 Annex V.A8)
Type: physicochemical
Conditions: method [a]
Description: In the above tables, measurement of Log P values was performed according to EEC directive 79/831 Annex V.A8 by HPLC (High Performance Liquid Chromatography) on reversed phase columns with the following methods: • ^[a] Log P value is determined by measurement of LC-UV, in an acidic range, with 0.1% formic acid in water and acetonitrile as eluent (linear gradient from 10% acetonitrile to 95% acetonitrile). • ^[b] Log P value is determined by measurement of LC-UV, in a neutral range, with 0.001 molar ammonium acetate solution in water and acetonitrile as eluent (linear gradient from 10% acetonitrile to 95% acetonitrile). • ^[c] Log P value is determined by measurement of LC-UV, in an acidic range, with 0.1% phosphoric acid and acetonitrile as eluent (linear gradient from 10% acetonitrile to 95% acetonitrile). If more than one Log P value is available within the same method, all the values are given and separated by “+”. Calibration was done with straight-chain alkan2-ones (with 3 to 16 carbon atoms) with known Log P values (measurement of Log P values using retention times with linear interpolation between successive alkanones). Lambda-max-values were determined using UV-spectra from 200 nm to 400 nm and the peak values of the chromatographic signals.

LogP | SMILES
4.89^[a] | CC(C)(C)OC(=O)C(NC(=O)c1sc(Br)c(Br)c1F)C1CC1 (racemic) [1.0921]
4.59^[a] | O=C(NC(C(=O)OC1CCC1)C1CC1)c1sc(Br)c(Br)c1F (racemic) [1.0922]
4.40^[a] | CC(C)OC(=O)C(NC(=O)c1sc(Br)c(Br)c1F)C1CC1 (racemic) [1.0923]

Same assay, conditions: method [a]; compounds of formula (I), Table 1.1

LogP | SMILES
2.54^[a] | CCOC(=O)C(CO)NC(=O)c1sc(Cl)c(Br)c1C (racemic) [1.0019]
5.03^[a] | CCSC(=O)C(CC(C)C)NC(=O)c1sc(Cl)c(Br)c1C (racemic) [1.0020]
4.74^[a] | CCSC(=O)C(NC(=O)c1sc(Cl)c(Br)c1C)C(C)C (racemic) [1.0021]
2.69^[a] | CCOC(=O)CNC(=O)c1sc(C)c(Br)c1F [1.0001]
3.15^[a] | CCOC(=O)C1(NC(=O)c2sc(Cl)c(Br)c2C)CCOCC1 [1.0018]
4.37^[a] | Cc1c(C(=O)NCC(=O)SCc2ccccc2)sc(Cl)c1Br [1.0022]
2.46^[a] | CCOC(=O)CNC(=O)c1sc(C#N)c(Br)c1C [1.0024]
2.52^[a] | CCOC(=O)CCNC(=O)c1sc(C#N)c(Br)c1C [1.0025]
3.04^[a] | COC(=O)CC1(NC(=O)c2sc(Cl)c(Br)c2C)CC1 [1.0032]
3.79^[a] | CCOC(=O)C1(CNC(=O)c2sc(Cl)c(Br)c2C)CC1 [1.0033]
2.88^[a] | CCOC(=O)C1(NC(=O)c2sc(Cl)c(Br)c2C)COC1 [1.0034]
3.29^[a] | COC(=O)C1(NC(=O)c2sc(Cl)c(Br)c2C)CSC1 [1.0035]
2.25^[a] | CCOC(=O)C(CC(N)=O)NC(=O)c1sc(Cl)c(Br)c1C (stereo not shown) [1.0036]
3.99^[a] | CCOC(=O)C(CC(F)(F)F)NC(=O)c1sc(Cl)c(Br)c1C (stereo not shown) [1.0038]
3.75^[a] | CCOC(=O)C1(CNC(=O)c2sc(Br)c(Cl)c2C)CC1 [1.0040]
2.22^[a] | CCOC(=O)C(CC(N)=O)NC(=O)c1sc(Br)c(Cl)c1C (stereo not shown) [1.0043]
4.61^[a] | CCOC(=O)CNC(=S)c1sc(Cl)c(Cl)c1Br [1.0059]
2.98^[a] | CCOC(=O)CNC(=O)c1sc(Cl)c(Br)c1C [1.0063]

LogP | SMILES
3.15^[a] | CCOC(=O)CCNC(=O)c1sc(Cl)c(Br)c1C [1.0064]
3.17^[a] | CCOC(=O)C1(NC(=O)c2sc(Cl)c(Br)c2C)CC1 [1.0065]
3.71^[a] | CCOC(=O)C1(NC(=O)c2sc(Cl)c(Br)c2C)CCC1 [1.0066]
4.30^[a] | CCOC(=O)C(NC(=O)c1sc(Cl)c(Br)c1C)C(C)C (stereo not shown) [1.0067]
3.33^[a] | COC(=O)C(CC(F)F)NC(=O)c1sc(Cl)c(Br)c1C (stereo not shown) [1.0068]
4.58^[a] | CCOC(=O)C(CC(C)C)NC(=O)c1sc(Cl)c(Br)c1C (stereo not shown) [1.0069]
3.99^[a] | CCOC(=O)C(CCSC)NC(=O)c1sc(Cl)c(Br)c1C (stereo not shown) [1.0070]
4.51^[a] | CCOC(=O)C(Cc1ccccc1)NC(=O)c1sc(Cl)c(Br)c1C (stereo not shown) [1.0071]
2.94^[a] | CCOC(=O)CNC(=O)c1sc(Br)c(Cl)c1C [1.0072]
3.11^[a] | CCOC(=O)CCNC(=O)c1sc(Br)c(Cl)c1C [1.0073]
3.13^[a] | CCOC(=O)C1(NC(=O)c2sc(Br)c(Cl)c2C)CC1 [1.0074]
4.53^[a] | CCOC(=O)C(CC(C)C)NC(=O)c1sc(Br)c(Cl)c1C (stereo not shown) [1.0078]
3.94^[a] | CCOC(=O)C(CCSC)NC(=O)c1sc(Br)c(Cl)c1C (stereo not shown) [1.0079]
3.48^[a] | CCOC(=O)CCNC(=O)c1sc(Br)c(Br)c1I [1.0081]
3.50^[a] | CCOC(=O)CCNC(=O)c1sc(Cl)c(Cl)c1Br [1.0084]
3.09^[a] | CCOC(=O)CNC(=O)c1sc(Br)c(I)c1C [1.0087]
3.23^[a] | CCOC(=O)CCNC(=O)c1sc(Br)c(I)c1C [1.0088]

More lines, now with the values behind:

SMILES | LogP
C=CC1CC1(NC(=O)c1sc(Br)c(Br)c1F)C(=O)OC (mixture of isomers) [1.0008] | 3.37^[a]
CCOC(=O)C(NC(=O)c1cc(C)c(Cl)s1)C(C)C (racemic) [1.0002] | 3.48^[a]
CCOC(=O)C(NC(=O)c1cc(F)c(Br)s1)C(C)C (racemic) [1.0003] | 3.46^[a]
COC(=O)C(CC(F)F)NC(=O)c1cc(F)c(Br)s1 (racemic) [1.0004] | 2.68^[a]
CSCCC(NC(=O)c1cc(Br)c(Cl)s1)C(=O)O (racemic) [1.0005] | 2.58^[a]
COC(=O)C1(NC(=O)c2sc(Br)c(Br)c2F)CCOC1 (racemic) [1.0009] | 2.76^[a]
CCOC(=O)C(CO)NC(=O)c1sc(Br)c(Br)c1F (racemic) [1.0012] | 2.51^[a]
CCSC(=O)C(CC(C)C)NC(=O)c1sc(Br)c(Br)c1F (racemic) [1.0013] | 5.05^[a]
CCSC(=O)C(NC(=O)c1sc(Br)c(Br)c1F)C(C)C (racemic) [1.0014] | 4.87^[a]
CCOC(=O)C(NC(=O)c1sc(C#N)c(Br)c1C)C(C)C (racemic) [1.0027] | 3.52^[a]
CCOC(=O)C(Cc1ccccc1)NC(=O)c1sc(C#N)c(Br)c1C (racemic) [1.0028] | 3.74^[a]
CCOC(=O)C(Cc1ccccc1)NC(=O)c1cc(Br)c(Cl)s1 (racemic) [1.0029] | 4.06^[a]
CCOC(=O)C(Cc1ccccc1)NC(=O)c1cc(F)c(Br)s1 (racemic) [1.0030] | 3.69^[a]
CCOC(=O)C(Cc1ccccc1)NC(=O)c1cc(C)c(Cl)s1 (racemic) [1.0031] | 3.73^[a]
COC(=O)C1(NC(=O)c2sc(Br)c(Br)c2F)CCC(F)(F)CC1 [1.0010] | 3.74^[a]
CCOC(=O)C1(NC(=O)c2sc(Br)c(Br)c2F)CCOCC1 [1.0011] | 3.13^[a]
O=C(CNC(=O)c1sc(Br)c(Br)c1F)SCc1ccccc1 [1.0015] | 4.15^[a]
O=C(CNC(=O)c1sc(Br)c(Br)c1F)Sc1ccccc1 [1.0016] | 3.89^[a]
CCOC(=O)C1(NC(=O)c2sc(C#N)c(Br)c2C)CC1 [1.0026] | 2.58^[a]
CCOC(=O)C1(NC(=O)c2sc(Br)c(Cl)c2C)COC1 [1.0041] | 2.84^[a]
COC(=O)C1(NC(=O)c2sc(Br)c(Cl)c2C)CSC1 [1.0042] | 3.25^[a]

SMILES | LogP
CCOC(=O)C(CC(F)(F)F)NC(=O)c1sc(Br)c(Cl)c1C (stereo not shown) [1.0045] | 3.94^[a]
CCOC(=O)C1(NC(=O)c2sc(Br)c(Br)c2F)COC1 [1.0046] | 2.77^[a]
COC(=O)C1(NC(=O)c2sc(Br)c(Br)c2F)CSC1 [1.0047] | 3.19^[a]
CCOC(=O)C(CC(N)=O)NC(=O)c1sc(Br)c(Br)c1F (stereo not shown) [1.0048] | 2.17^[a]
CCOC(=O)C(CC(F)(F)F)NC(=O)c1sc(Br)c(Br)c1F (stereo not shown) [1.0050] | 3.88^[a]
CCOC(=O)C(Cc1ccccc1)NC(=O)c1sc(Br)c(Br)c1F (stereo not shown) [1.0051] | 4.55^[a]
CCOC(=O)CNC(=O)c1cc(Br)c(C#N)s1 [1.0052] | 2.16^[a]
CCOC(=O)C1(NC(=O)c2cc(Br)c(C#N)s2)CC1 [1.0053] | 2.45^[a]
CCOC(=O)C(NC(=O)c1cc(Br)c(C#N)s1)C(C)C (stereo not shown) [1.0054] | 3.27^[a]
CCOC(=O)C(Cc1ccccc1)NC(=O)c1cc(Br)c(C#N)s1 (stereo not shown) [1.0055] | 3.50^[a]
CCOC(=O)C(CC(C)C)NC(=O)c1sc(Br)c(Br)c1F (stereo not shown) [1.0062] | 4.67^[a]
CCOC(=O)C1(NC(=O)c2sc(Br)c(Cl)c2C)CCC1 [1.0075] | 3.67^[a]
CCOC(=O)C(NC(=O)c1sc(Br)c(Cl)c1C)C(C)C (stereo not shown) [1.0076] | 4.25^[a]
COC(=O)C(CC(F)F)NC(=O)c1sc(Br)c(Cl)c1C (stereo not shown) [1.0077] | 3.29^[a]
CCOC(=O)C(Cc1ccccc1)NC(=O)c1sc(Br)c(Cl)c1C (stereo not shown) [1.0080] | 4.46^[a]
CCOC(=O)C1(NC(=O)c2sc(Br)c(Br)c2I)CCC1 [1.0082] | 4.08^[a]
COC(=O)C(CC(F)F)NC(=O)c1sc(Br)c(Br)c1I (stereo not shown) [1.0083] | 3.60^[a]
CCOC(=O)C1(NC(=O)c2sc(Cl)c(Cl)c2Br)CCC1 [1.0085] | 4.23^[a]
COC(=O)C(CC(F)F)NC(=O)c1sc(Cl)c(Cl)c1Br (stereo not shown) [1.0086] | 3.60^[a]
CCOC(=O)C1(NC(=O)c2sc(Br)c(I)c2C)CC1 [1.0089] | 3.25^[a]

Same assay, conditions: method marker [a] given with each value; Table 1.1, compounds of formula (I)

LogP | SMILES
4.95^[a] | COC(=O)C(Cc1ccc(Cl)cc1)NC(=O)c1sc(Br)c(Br)c1Cl (racemic) [1.0940]
5.12^[a] | COC(=O)C(C)(Cc1ccccc1)NC(=O)c1sc(Br)c(Br)c1Cl (racemic) [1.0941]
4.25^[a] | COC(=O)C(NC(=O)c1sc(Br)c(Br)c1Cl)c1cccs1 (racemic) [1.0942]
4.50^[a] | CCOC(=O)C(NC(=O)c1sc(Br)c(Br)c1Cl)C(F)(F)F (racemic) [1.0943]
4.52^[a] | CCOC(=O)C(NC(=O)c1sc(Cl)c(Cl)c1Br)C(F)(F)F (racemic) [1.0946]
4.26^[a] | COC(=O)C(NC(=O)c1sc(Cl)c(Cl)c1Br)c1cccs1 (racemic) [1.0947]
5.15^[a] | COC(=O)C(C)(Cc1ccccc1)NC(=O)c1sc(Cl)c(Cl)c1Br (racemic) [1.0948]
4.08^[a] | CCOC(=O)C(NC(=O)c1sc(Br)c(Br)c1F)C(F)(F)F (racemic) [1.0952]
3.84^[a] | COC(=O)C(NC(=O)c1sc(Br)c(Br)c1F)c1cccs1 (racemic) [1.0953]
